The source of these data is patent publication US12239661B2, “Methods and compositions for treating undesired implanted tissue filler” (priority 2019, dated 2025).

The nature of the assay: X-ray CT of volume, mean density and 3D shape of Radiesse nodules and injected hyperosmotic solutions (Example 4). The class given is in vivo, Pig (Sus scrofa domesticus). The following applies: for Change in Volume as percent of Injected Volume, Day 14/15: Example 4 (Day 15); for Change in Volume as percent of Injected Volume, Day 14/15 / Change in Volume as percent of Injected Volume, Day 0 + 1 h 15 / Change in Volume as percent of Injected Volume, Day 0 + 2 h / Change in Volume as percent of Injected Volume, Day 0 + 4 h / Change in Volume as percent of Injected Volume, Day 1 / Change in Volume as percent of Injected Volume, Day 3 / Change in Volume as percent of Injected Volume, Day 7: mean; for Change in Volume as percent of Injected Volume, Day 0 + 1 h 15 / Change in Volume as percent of Injected Volume, Day 0 + 2 h / Change in Volume as percent of Injected Volume, Day 0 + 4 h / Change in Volume as percent of Injected Volume, Day 1 / Change in Volume as percent of Injected Volume, Day 3 / Change in Volume as percent of Injected Volume, Day 7: Example 4. How it is done: Pigs are injected by SC route with Radiesse® filler without Lidocaine (Test item). One hour after the Radiesse® filler injection, selected different hyperosmotic solutions are injected by SC route into the dermal filler nodules. For two Radiesse® filler nodules per pig, no additional product is injected; these nodules are used as controls.
The evolution over time of the volume and mean density of the Radiesse® filler nodules with injection of the different solutions are assessed by CT-scanner at selected time points: on Day 0, at about 1 hour (h) and 15 minutes (min), 2 h and 4 h after the Radiesse® filler injection and solution injection, and then, on Day 1 (about 24 h after Radiesse® filler injection), Day 3, Day 7 and Day 15.
On Day 0, 4 pigs received ten (10) SC injections of Radiesse® dermal filler (P20WK-EE-01) of about 500 μl/nodule in the flank (ventral area) at T=0. One hour after Radiesse® dermal filler injections (T=1 h), about 1.5 ml of different hyperosmotic solutions (P20WK-EE-02 to P20WK-EE-05) were each injected into 8 Radiesse® filler nodules. Two Radiesse® filler nodules per animal were not injected with hyperosmotic solution and served as controls.
A total of 7 CT-scans were performed at 1 h 15±10 min, 2 h±15 min, 4 h±20 min, 1 day (24 h±1 h), 3, 7 and 15 days after injection of the dermal filler, as described in FIG. 9A.
On Day 0 (TO), 10 SC injections of test item P20WK-EE-01 (Radiesse® dermal filler) were performed in the ventral area (five nodules on each flank of the ventral area). For each SC nodule, a theoretical volume of 500 μL was administered. One hour (±5 min) after injection of dermal filler, SC injections of the different solutions (prepared on Day −3) were performed into 8 nodules of dermal filler. For each injection of solution, a theoretical volume of 1.5 mL was administered (see, e.g., injection scheme in Table 11).
In order to measure the volume, the mean density and to visualize the 3D shape of the dermal filler SC injected (in presence or absence of different hyperosmotic solutions), in vivo CT-scans were performed on Day 0: 1 h 15 (±10 min), 2 h (±15 min) and 4 h (±20 min), on Day 1 (24 h±1 h), Day 3, Day 7 and Day 15.
The CT acquisitions are analyzed with the software Avizo version 9.2.0. The objective of this analysis was to assess the dispersion over time of the Radiesse® dermal filler injected by SC route after injection of different hyperosmotic solutions.
To achieve this goal, the evolution of these parameters is observed over time: • the volume of each nodule (Radiesse® dermal filler and solution separately), • the mean density of each nodule (Radiesse® dermal filler and solution separately), • the 3D shape of each nodule by visualization of the 3D model of each nodule at each time point (Radiesse® dermal filler with or without solution separately). Segmentation:
An image segmentation is performed on each CT acquisition on the […] reconstruction. At first, a manual pre-segmentation is performed around each nodule in order to roughly isolate the voxels corresponding to Radiesse® dermal filler and hyperosmotic solutions and defined a Region of Interest (ROI). Secondly, an automatic segmentation is applied on the ROI previously defined using a global grey level thresholding procedure. […] Similarly, all the voxels having a grey level between these HU values are selected in a ROI and corresponds to the pure solution or solution containing some dispersed Radiesse® dermal filler (see, FIG. 10).
Then, a 3D model of these selected voxels (see, FIG. 11) is obtained allowing the calculation of the total volume (in mm^3) and the mean density (in HU) of the two defined compartments of each nodule of Pure Radiesse® dermal filler and of each solution containing or not containing dispersed Radiesse® dermal filler.
The volume (in mm^3) of the ROI of Radiesse® dermal filler and the solutions corresponding to each nodule and the mean density (in HU) of each nodule are calculated at each time point.

Where [1] appears, read: individual nodules, [+250, +∞] HU, listed as Radiesse + Fructose.
[2] abbreviates: mean of 8 nodules, [+250, +∞] HU.

Structures are written as SMILES. Where “and” joins values, the source holds several entries; their conditions need not be identical. Equal entries are not always repeated. Marks after values point to notes of the source that are not given here.

In the case of `O=C([O-])O.[Na+]` [sol 14, Sodium hydrogen carbonate (sodium bicarbonate)], the “Change in Volume as percent of Injected Volume, Day 14/15” value is reported as 1977%; the “Change in Volume as percent of Injected Volume, Day 0 + 1 h 15” value is given as 1529* percent; the “Change in Volume as percent of Injected Volume, Day 0 + 2 h” value was 1561%; the “Change in Volume as percent of Injected Volume, Day 0 + 4 h” value turned out to be 1799%. Further, the “Change in Volume as percent of Injected Volume, Day 1” value was 2214%; the “Change in Volume as percent of Injected Volume, Day 3” value was found to be 2014%; the “Change in Volume as percent of Injected Volume, Day 7” value was found to be 2345%. Besides, for the setting “between −100 HU and 250 HU”, the “average of the mean density of solution nodules, T=1 h 15” value is reported as 25.7±5.5 HU; the “average of the mean density of solution nodules, T=2 h” value is 14.1±7.1 HU; the “mean volume of solution with potential dispersed Radiesse, Day 15” value is 1352.3±570.6 mm^3; the “mean volume of solution with potential dispersed Radiesse, T=2 h” value came out at 2577.4±54.0 mm^3. Also, the “variation of solution volume on Day 15 compared to the injected volume on T=1 h” value (between −100 HU and 250 HU) is −1.4%. Moreover, the “average of the mean density of nodules, Day 15” value (pure Radiesse >250 HU) turned out to be 441.3±62.9 HU.

For `O=C(CO)[C@@H](O)[C@H](O)[C@H](O)CO` [sol 11, Fructose], the “Change in Volume as percent of Injected Volume, Day 14/15” value was 1930%; the “Change in Volume as percent of Injected Volume, Day 0 + 1 h 15” value is listed as 1581* percent; the “Change in Volume as percent of Injected Volume, Day 0 + 2 h” value was found to be 1610%; the “Change in Volume as percent of Injected Volume, Day 0 + 4 h” value was determined as 1871%. The “Change in Volume as percent of Injected Volume, Day 1” value is 2285%; the “Change in Volume as percent of Injected Volume, Day 3” value is recorded as 1959%; the “Change in Volume as percent of Injected Volume, Day 7” value came out at 2002%. Also, where the note is “between −100 HU and 250 HU”, the “average of the mean density of solution nodules, T=1 h 15” value came to 58.6±6.2 HU; the “average of the mean density of solution nodules, T=4 h” value was −1.0±7.7 HU; the “mean volume of solution with potential dispersed Radiesse, Day 15” value is listed as 883.9±269.9 mm^3; the “mean volume of solution with potential dispersed Radiesse, T+4 h” value amounted to 7000.8±1389.9 mm^3. Besides, for the setting “between −100 HU and 250 HU”, the “variation of solution volume on Day 15 compared to the injected volume on T=1 h” value was −42.8% and the “variation of the average of the mean density of solutions, Day 15 compared to T=1 h 15” value is reported as 34.7%. For the same compound, under setting [1], the “Nodule volume, Day 0 + 1 h 15” value was 799.1 mm^3 and 845.1 mm^3 and 739.4 mm^3 and 852.5 mm^3 and 760.4 mm^3 and 837.5 mm^3 and 793.0 mm^3 and 710.6 mm^3; the “Nodule volume, Day 0 + 2 h” value is 795.9 mm^3 and 856.3 mm^3 and 750.5 mm^3 and 863.0 mm^3 and 770.1 mm^3 and 898.7 mm^3 and 808.3 mm^3 and 712.1 mm^3; the “Nodule volume, Day 0 + 4 h” value is 1039.3 mm^3 and 957.8 mm^3 and 861.1 mm^3 and 985.4 mm^3 and 902.9 mm^3 and 1039.4 mm^3 and 912.1 mm^3 and 796.2 mm^3; the “Nodule volume, Day 1” value was 1168.5 mm^3 and 1120.2 mm^3 and 1122.3 mm^3 and 1226.3 mm^3 and 1085.5 mm^3 and 1165.0 mm^3 and 1153.8 mm^3 and 1115.5 mm^3. Moreover, under setting [1], the “Nodule volume, Day 3” value is 1043.6 mm^3 and 1039.7 mm^3 and 961.0 mm^3 and 1053.3 mm^3 and 969.6 mm^3 and 992.2 mm^3 and 891.2 mm^3 and 897.7 mm^3; the “Nodule volume, Day 7” value is 1041.9 mm^3 and 1040.7 mm^3 and 1239.0 mm^3 and 1200.9 mm^3 and 879.3 mm^3 and 953.1 mm^3 and 833.5 mm^3 and 838.3 mm^3; the “Nodule volume, Day 15” value was 997.7 mm^3 (2×) and 997.2 mm^3 and 944.9 mm^3 and 1054.8 mm^3 and 923.5 mm^3 and 912.9 mm^3 and 905.4 mm^3. Moreover, under setting [2], the “Mean nodule volume, Day 0 + 1 h 15” value came to 792.2 mm^3; the “Mean nodule volume, Day 0 + 2 h” value came out at 806.9 mm^3; the “Mean nodule volume, Day 0 + 4 h” value is 936.8 mm^3; the “Mean nodule volume, Day 1” value amounted to 1144.6 mm^3. Also, under setting [2], the “Mean nodule volume, Day 3” value came out at 981.0 mm^3; the “Mean nodule volume, Day 7” value was determined as 1003.3 mm^3; the “Mean nodule volume, Day 15” value is 966.8±52.9 mm^3. In addition, under “mean of 8 nodules, [+250, +∞] HU, listed as Radiesse + Fructose”, the “Mean nodule volume, Day 15” value amounted to 966.8 mm^3. For the setting “pure Radiesse >250 HU”, the “average of the mean density of nodules, Day 1” value came out at 424.6±31.6 HU; the “average of the mean density of nodules, Day 3” value turned out to be 505.0±72.2 HU; the “average of the mean density of nodules, Day 15” value was determined as 512.9±57.4 HU.
